Measurements taken from patent publication US20240034743A9, “TRICYCLIC COMPOUNDS AS EGFR INHIBITORS” (QILU PHARMACEUTICAL CO., LTD., priority 2020, published 2024).
Like-named read-outs stand apart in the source and are kept apart here.

How the values were obtained:
EGFR WT (wild type EGFR) = EGFR WT (wild type EGFR) (Homo sapiens (Human), UniProt P00533); experiment: In vitro enzymatic TR-FRET (HTRF KinEASE-TK) kinase assay, EGFR WT; format: biochemical; settings: kinase activity, TR-FRET; read-out: EGFR (WT) IC50
Procedure, shortened: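 IC50 derived from the 665/615 nm TR-FRET ratio after 1 h with streptavidin-XL665 and Cryptate-labelled TK antibody. Kinase reaction ran 40 min at room temperature with biotin-TK substrate and ATP, following 10 min compound–enzyme preincubation. Buffer: 5 mM MgCl2, 1 mM MnCl2, 1 mM DTT.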

EGFR L858R/T790M/C797S = EGFR L858R/T790M/C797S (Homo sapiens (Human), UniProt P00533, C797S/L858R/T790M); experiment: In vitro enzymatic TR-FRET (HTRF KinEASE-TK) kinase assay, EGFR L858R/T790M/C797S; format: biochemical; settings: kinase activity
Method: (I) In Vitro Enzymatic Experiment for EGFR WT and EGFR L858R/T790M/C797S
In the assay, the inhibition effect of the compound on the kinase activity of EGFR WT (wild type EGFR) and EGFR L858R/T790M/C797S was tested by adopting a time-resolved fluorescence resonance energy transfer (TR-FRET) method, and half maximal inhibitory concentration IC50 of the compound on the kinase activity of EGFR was obtained.
EGFR recombinase and EGFR L858R/T790M/C797S recombinase, purchased from Signalchem.
HTRF KinEASE-TK kit, purchased from Cisbio.
DTT, MnCl2, and MgCl2, purchased from Sigma.
ATP, purchased from Promega.
Brigatinib, purchased from Selleck.
1) 1× working solution was prepared: 5 mM MgCl2; 1 mM DTT; 1 mM MnCl2 and 1× kinase buffer (in kit).
2) […] of gradiently-diluted compound was transferred to a 384-well plate using Echo 550 (Labcyte).
3) 5 μL of 2× EGFR WT or EGFR L858R/T790M/C797S recombinase solution was added to the 384-well plate, and the plate was incubated at room temperature for 10 min.
4) 5 μL of 2× TK-substrate-biotin substrate solution (containing ATP) was added to the 384-well plate, and the plate was incubated at room temperature for 40 min.
5) 5 μL of assay solution containing Sa-XL 665 HTRF and 5 μL of TK-antibody-Cryptatewas were added to the plate, and the plate was incubated at room temperature for 1 h.
6) The fluorescence signal values at 615 nm and 665 nm were measured for each well using an Envision microplate reader (PerkinElmer).
7) The ratio of fluorescence signal values at 665 nm and 615 nm was calculated for each well.
8) Data analysis was performed using GraphPad Prism software to give the IC50 for compounds.

A431 cells (EGFR WT) = experiment: A431 cell proliferation inhibition assay (CellTiter-Glo); format: cell-based
Procedure, shortened: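 CellTiter-Glo luminescence quantified growth after 72 h treatment with serially diluted compounds (final DMSO 0.1%), following a 24 h attachment period at 37° C, 5% CO2. Signal read after 30 min dark incubation at room temperature, with half-maximal growth inhibition reported as IC50.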

[1] = tested on: Ba/F3_Del19/T790M/C797S cells; experiment: Ba/F3_Del19/T790M/C797S cell proliferation inhibition assay (CellTiter-Glo); format: cell-based
Procedure, shortened: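 IC50 for growth inhibition came from CellTiter-Glo chemiluminescence after a 72 h, 37° C compound exposure. Ba/F3_Del19/T790M/C797S cells were plated at 700/well, and compound was dosed in gradient with 0.1% final DMSO.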

[2] = tested on: Ba/F3_L858R/T790M/C797S cells; experiment: Ba/F3_L858R/T790M/C797S cell proliferation inhibition assay (CellTiter-Glo); format: cell-based
Procedure, shortened: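 Proliferation IC50 derived from CellTiter-Glo luminescence in Ba/F3 cells expressing triple-mutant EGFR (L858R/T790M/C797S). Cells (700/well) incubated 72 h with graded compound doses at 0.1% DMSO final, 37 °C, 5% CO2; reagent developed 30 min at room temperature in the dark.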

[3] = cell proliferation, 72 h, CellTiter-Glo, read-out: A431 EGFR WT IC50
[4] = cell proliferation, 72 h, CellTiter-Glo, read-out: Ba/F3 (Del19/T790M/C797S) IC50
[5] = cell proliferation, 72 h, CellTiter-Glo, read-out: Ba/F3 (L858R/T790M/C797S) IC50
[6] = Homo sapiens, A-431, cell proliferation, 72 h, CellTiter-Glo, read-out: A431 EGFR WT IC50
[7] = Mus musculus, BaF3, cell proliferation, 72 h, CellTiter-Glo, read-out: Ba/F3 (Del19/T790M/C797S) IC50
[8] = Mus musculus, BaF3, cell proliferation, 72 h, CellTiter-Glo, read-out: Ba/F3 (L858R/T790M/C797S) IC50
[9] = Homo sapiens, A-431, 72 h, read-out: A431 EGFR WT IC50(nM)
[10] = Mus musculus, BaF3, 72 h, read-out: Ba/F3 (Del19/T790M/C797S) IC50(nM)
[11] = Mus musculus, BaF3, 72 h, read-out: Ba/F3 (L858R/T790M/C797S) IC50(nM)

Sequence of EGFR L858R/T790M/C797S (P00533 25-1210 T790M/C797S/L858R): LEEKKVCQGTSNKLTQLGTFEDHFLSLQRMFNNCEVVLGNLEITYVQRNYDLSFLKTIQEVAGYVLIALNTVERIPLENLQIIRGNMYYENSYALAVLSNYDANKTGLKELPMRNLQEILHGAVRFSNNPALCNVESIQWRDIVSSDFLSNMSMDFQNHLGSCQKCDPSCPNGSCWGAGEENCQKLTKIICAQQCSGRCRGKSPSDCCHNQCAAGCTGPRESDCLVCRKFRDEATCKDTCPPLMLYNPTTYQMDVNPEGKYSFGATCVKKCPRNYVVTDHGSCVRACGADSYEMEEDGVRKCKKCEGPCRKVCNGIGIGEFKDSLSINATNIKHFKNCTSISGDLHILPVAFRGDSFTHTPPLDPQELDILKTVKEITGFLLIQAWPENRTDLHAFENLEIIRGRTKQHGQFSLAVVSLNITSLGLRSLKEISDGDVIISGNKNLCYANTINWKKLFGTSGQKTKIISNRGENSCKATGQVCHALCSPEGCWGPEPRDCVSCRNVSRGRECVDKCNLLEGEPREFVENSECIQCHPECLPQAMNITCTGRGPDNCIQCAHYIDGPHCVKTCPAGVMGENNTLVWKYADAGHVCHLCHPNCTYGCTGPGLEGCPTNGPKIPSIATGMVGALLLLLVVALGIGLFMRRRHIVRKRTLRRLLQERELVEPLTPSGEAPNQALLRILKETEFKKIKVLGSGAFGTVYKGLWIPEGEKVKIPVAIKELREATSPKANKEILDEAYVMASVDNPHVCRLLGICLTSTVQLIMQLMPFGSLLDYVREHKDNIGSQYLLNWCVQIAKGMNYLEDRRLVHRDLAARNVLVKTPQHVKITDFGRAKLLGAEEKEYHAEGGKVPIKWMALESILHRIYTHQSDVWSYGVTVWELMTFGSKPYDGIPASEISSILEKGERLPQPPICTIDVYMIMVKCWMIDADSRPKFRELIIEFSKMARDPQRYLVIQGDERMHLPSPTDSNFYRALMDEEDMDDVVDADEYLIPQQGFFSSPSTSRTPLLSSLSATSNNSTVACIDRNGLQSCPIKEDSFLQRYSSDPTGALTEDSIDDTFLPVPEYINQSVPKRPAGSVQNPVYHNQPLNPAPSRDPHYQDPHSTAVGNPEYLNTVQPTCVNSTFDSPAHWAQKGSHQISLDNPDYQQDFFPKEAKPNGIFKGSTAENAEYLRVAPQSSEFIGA
Sequence of EGFR WT (wild type EGFR) (P00533 25-1210): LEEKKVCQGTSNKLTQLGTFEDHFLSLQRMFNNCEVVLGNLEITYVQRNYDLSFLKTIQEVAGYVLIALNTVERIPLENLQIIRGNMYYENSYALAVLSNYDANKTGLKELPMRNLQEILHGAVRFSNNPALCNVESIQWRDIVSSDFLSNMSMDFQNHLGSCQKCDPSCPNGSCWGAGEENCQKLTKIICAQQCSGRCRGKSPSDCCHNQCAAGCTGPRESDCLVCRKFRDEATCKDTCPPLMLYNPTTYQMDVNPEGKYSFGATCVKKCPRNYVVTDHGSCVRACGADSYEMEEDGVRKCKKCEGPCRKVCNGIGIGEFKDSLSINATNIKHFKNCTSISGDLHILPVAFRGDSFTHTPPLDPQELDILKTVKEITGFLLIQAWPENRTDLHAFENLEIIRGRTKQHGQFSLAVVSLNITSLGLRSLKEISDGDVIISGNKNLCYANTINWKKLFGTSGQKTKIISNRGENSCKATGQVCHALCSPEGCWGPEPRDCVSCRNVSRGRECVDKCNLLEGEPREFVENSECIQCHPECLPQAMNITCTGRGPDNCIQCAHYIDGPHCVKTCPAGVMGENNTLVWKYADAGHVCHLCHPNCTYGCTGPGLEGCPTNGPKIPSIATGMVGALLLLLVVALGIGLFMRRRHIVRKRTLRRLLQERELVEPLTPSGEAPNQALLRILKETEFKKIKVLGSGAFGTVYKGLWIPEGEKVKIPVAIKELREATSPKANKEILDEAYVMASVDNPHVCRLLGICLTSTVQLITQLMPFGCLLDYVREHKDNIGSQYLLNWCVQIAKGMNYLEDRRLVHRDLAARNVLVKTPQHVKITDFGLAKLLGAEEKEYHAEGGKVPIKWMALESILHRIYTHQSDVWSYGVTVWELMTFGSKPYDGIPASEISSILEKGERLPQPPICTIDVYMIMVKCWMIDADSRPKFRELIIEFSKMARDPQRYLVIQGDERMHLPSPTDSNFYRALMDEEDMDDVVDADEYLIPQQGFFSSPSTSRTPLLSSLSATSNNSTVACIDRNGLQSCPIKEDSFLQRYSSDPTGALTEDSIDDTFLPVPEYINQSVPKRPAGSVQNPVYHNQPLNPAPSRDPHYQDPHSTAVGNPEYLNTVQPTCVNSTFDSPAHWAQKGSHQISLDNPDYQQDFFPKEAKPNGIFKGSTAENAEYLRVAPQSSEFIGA

| IC50 (EGFR WT (wild type EGFR)) [nM] | IC50 (EGFR L858R/T790M/C797S) [nM] | IC50 (A431 cells (EGFR WT); [3]) [nM] | IC50 [1, 4] [nM] | IC50 [2, 5] [nM] | IC50 (A431 cells (EGFR WT); [6]) [nM] | IC50 [1, 7] [nM] | IC50 [2, 8] [nM] | Compound | IC50 (A431 cells (EGFR WT); [9]) [nM] | IC50 [1, 10] [nM] | IC50 [2, 11] [nM] |
| --- | --- | --- | --- | --- | --- | --- | --- | --- | --- | --- | --- |
| 1 to 10 | < 1 | 100 to 1000 | < 10 | 10 to 50 | – | – | – | COc1cc2c(cc1Nc1ncc(Br)c(Nc3ccccc3P(C)(C)=O)n1)-c1cnn(C3COC3)c1CCN2C(C)C [Compound 77A] | – | – | – |
| 10 to 50 | 1 to 10 | – | – | – | 100 to 1000 | 10 to 50 | 50 to 100 | COc1cc2c(cc1Nc1ncc(C)c(Nc3ccccc3P(C)(C)=O)n1)-c1cnn(C)c1CCN2C#N [Compound 23] | – | – | – |
| 1 to 10 | < 1 | – | – | – | 100 to 1000 | < 10 | 10 to 50 | COc1cc2c(cc1Nc1ncc(Br)c(Nc3cccnc3P(C)(C)=O)n1)-c1cnn(C)c1CCN2C(C)C [Compound 83] | – | – | – |
| < 1 | < 1 | – | – | – | 10 to 50 | < 10 | < 10 | COc1cc2c(cc1Nc1ncc(Br)c(Nc3ccc4nccnc4c3P(C)(C)=O)n1)-c1cnn(C)c1CCN2C1CN(C)C1 [Compound 10] | – | – | – |
| 1 to 10 | < 1 | 100 to 1000 | < 10 | 10 to 50 | – | – | – | COc1cc2c(cc1Nc1ncc(Br)c(Nc3ccccc3P(C)(C)=O)n1)-c1cnn(C)c1CCN2[C@@H]1CCN(C)C[C@H]1F (single isomer, unassigned) [Compound 66A] | – | – | – |
| 50 to 100 | 1 to 10 | – | – | – | 100 to 1000 | 10 to 50 | 10 to 50 | COc1cc2c(cc1Nc1ncc(Br)c(Nc3ccccc3P(C)(C)=O)n1)-c1cccnc1CCN2C [Compound 99] | – | – | – |
| 10 to 50 | 1 to 10 | – | – | – | > 1000 | 10 to 50 | 100 to 1000 | COc1cc2c(cc1Nc1nccc(Nc3ccccc3P(C)(C)=O)n1)-c1cnn(C)c1CCN2C [Compound 22] | – | – | – |
| 1 to 10 | < 1 | 100 to 1000 | < 10 | 10 to 50 | – | – | – | COc1cc2c(cc1Nc1ncc(Br)c(Nc3ccccc3P(C)(C)=O)n1)-c1cnn(C)c1CCN2[C@H]1CCN(C)C[C@@H]1F (single isomer, unassigned) [Compound 66B] | – | – | – |
| 1 to 10 | < 1 | – | – | – | 100 to 1000 | < 10 | < 10 | COc1cc2c(cc1Nc1ncc(Br)c(Nc3ccc4nccnc4c3NS(C)(=O)=O)n1)-c1cnn(C)c1CCN2C1CCOCC1 [Compound 130] | – | – | – |
| 10 to 50 | < 1 | – | – | – | > 1000 | 50 to 100 | 100 to 1000 | COc1cc2c(cc1Nc1nccc(Nc3ccccc3P(C)(C)=O)n1)-c1cnn(C)c1CCN2C(C)C [Compound 102] | – | – | – |
| < 1 | < 1 | 50 to 100 | < 10 | < 10 | – | – | – | COc1cc2c(cc1Nc1ncc(Br)c(Nc3ccc4nccnc4c3P(C)(C)=O)n1)-c1cnn(C)c1CCN2C1CCN(C)C[C@@H]1F (some centres unmarked) [Compound 68] | – | – | – |
| 10 to 50 | 1 to 10 | – | – | – | 100 to 1000 | 10 to 50 | 10 to 50 | COc1cc2c(cc1Nc1ncc(Br)c(Nc3ccc4nccnc4c3NS(C)(=O)=O)n1)-c1cnn(C)c1CCN2C(C)(C)CF [Compound 120] | – | – | – |
| 1 to 10 | 1 to 10 | – | – | – | 100 to 1000 | 10 to 50 | 50 to 100 | COc1cc2c(cc1Nc1ncc(F)c(Nc3ccccc3P(C)(C)=O)n1)-c1cnn(C)c1CCN2C [Compound 17] | – | – | – |
| < 1 | < 1 | – | – | – | 100 to 1000 | < 10 | < 10 | COc1nc2c(cc1Nc1ncc(Br)c(Nc3ccc4nccnc4c3NS(C)(=O)=O)n1)-c1cnn(C)c1CCN2C [Compound 107] | – | – | – |
| 1 to 10 | < 1 | – | – | – | 100 to 1000 | < 10 | 10 to 50 | COc1cc2c(cc1Nc1ncc(Br)c(Nc3ccccc3P(C)(C)=O)n1)-c1cnn(C)c1CCC2N(C)C (centres unmarked) [Compound 78] | – | – | – |
| 1 to 10 | < 1 | – | – | – | 100 to 1000 | < 10 | < 10 | COc1nc2c(cc1Nc1ncc(Br)c(Nc3ccc4nccnc4c3P(C)(C)=O)n1)-c1cnn(C)c1CCN2C [Compound 80] | – | – | – |
| < 1 | < 1 | – | – | – | 100 to 1000 | < 10 | 10 to 50 | COc1cc2c(cc1Nc1ncc(Br)c(Nc3ccc4nccnc4c3NS(C)(=O)=O)n1)-c1cnn(C)c1CCN2C [Compound 35] | – | – | – |
| 1 to 10 | < 1 | – | – | – | 100 to 1000 | < 10 | 10 to 50 | COc1cc2c(cc1Nc1ncc(Cl)c(Nc3ccccc3P(C)(C)=O)n1)-c1cnn(C)c1CCN2C(C)C [Compound 45] | – | – | – |
| 10 to 50 | < 1 | – | – | – | 100 to 1000 | 10 to 50 | 50 to 100 | COc1cc2c(cc1Nc1ncc(C3CC3)c(Nc3ccccc3P(C)(C)=O)n1)-c1cnn(C)c1CCN2C [Compound 30] | – | – | – |

| Compound | IC50 (EGFR WT (wild type EGFR)) [nM] | IC50 (EGFR L858R/T790M/C797S) [nM] | IC50 (A431 cells (EGFR WT); [3]) [nM] | IC50 [1, 4] [nM] | IC50 [2, 5] [nM] | IC50 (A431 cells (EGFR WT); [6]) [nM] | IC50 [1, 7] [nM] | IC50 [2, 8] [nM] | IC50 (A431 cells (EGFR WT); [9]) [nM] | IC50 [1, 10] [nM] | IC50 [2, 11] [nM] |
| --- | --- | --- | --- | --- | --- | --- | --- | --- | --- | --- | --- |
| COc1cc2c(cc1Nc1ncc(Br)c(Nc3ccccc3N(C(C)C)S(C)(=O)=O)n1)-c1cnn(C)c1CCN2 [Compound 122] | 50 to 100 | 1 to 10 | – | – | – | – | – | – | 100 to 1000 | 10 to 50 | 10 to 50 |
| COc1cc2c(cc1Nc1ncc(Br)c(Nc3ccccc3NS(C)(=O)=O)n1)-c1cnn(C)c1CCN2 [Compound 121] | 100 to 1000 | 1 to 10 | – | – | – | – | – | – | 100 to 1000 | < 10 | < 10 |
| COc1nc2c(cc1Nc1ncc(Br)c(Nc3ccc4nccnc4c3P(C)(C)=O)n1)-c1cnn(C)c1CCN2C(C)C [Compound 82] | 1 to 10 | 1 to 10 | – | – | – | – | – | – | > 1000 | 10 to 50 | 10 to 50 |
